Columns and labels:
Type in all cases: physicochemical
[1] = Hygroscopicity / water uptake on storage
Method: So nimmt es bei Temperaturen von 20 bzw. 30°C und einer relativen Luftfeuchtigkeit von 80 % bei der Lagerung kein Wasser auf (keine Umwandlung in das 1,5-Hydrat!).

Solubility in acetone = settings: solvent acetone (for the 1,5-Hydrat also other lower ketones)
[2] = Limiting solubility in phosphate buffer, measured in the presence of undissolved solid; settings: 22°C; for Grenzlöslichkeit: pH 7,4, in the presence of undissolved solid

SMILES | Hygroskopizität [1] | Wasseraufnahme bei der Lagerung ([1]; 20 or 30°C, relative humidity 80 %, storage) | Löslichkeit in Aceton (Solubility in acetone) | Grenzlöslichkeit [2] | Grenzlöslichkeit relative to the 1,5-Hydrat ([2]; pH 7,4, ratio versus the 1,5-Hydrat)
COc1ccnc(C[S+]([O-])c2nc3ccc(OC(F)F)cc3[nH]2)c1OC (stereo not shown) [Monohydrat, 5-Difluormethoxy-2-[(3,4-dimethoxy-2-pyridyl)methylsulfinyl]-1H-benzimidazol-Natriumsalz-monohydrat] | nicht hygroskopisch | kein Wasser | schwer löslich | 0.0013 mol/L | etwa doppelt so große
COc1ccnc(C[S+]([O-])c2nc3ccc(OC(F)F)cc3[nH]2)c1OC (stereo not shown) [1,5-Hydrat, 5-Difluormethoxy-2-[(3,4-dimethoxy-2-pyridyl)methylsulfinyl]-1H-benzimidazol-Natriumsalz-1,5-hydrat, reference compound] |  |  | leichtlöslich | 6,2 x 10^-4 mol/l | 

From patent EP0533790B1, “NEW SALT FORM OF 5-DIFLUOROMETHOXY-2- [3,4-DIMETHOXY-2-PYRIDYL)METHYLSULFINYL-1H-BENZIMIDAZOLE” (BYK GULDEN LOMBERG CHEMISCHE FABRIK GMBH, priority 1990, dated 1991)
